Earlier results on three compounds are cited in patent US10894875B2, “Films and unit dose articles comprising aversive UV-protective agents, and uses and methods related thereto” (The Procter & Gamble Company, priority 2017, dated 2021).

The structures appear in SMILES notation. Marks after values point to notes of the source that are not given here.

For data set [1] the following is noted: high assessed based on melting point; low = hydrolysis; based on literature.
The conditions of data set [2]: reference quinine; lower values correspond to stronger bittering.
For data set [3] the following is noted: Scoville heat units.

For `CCCCCOC(=O)c1ccc(N(C)C)cc1` [Ex. 6, Padimate A, reference compound], the Thermostability result in data set [1] was “Low^c”.

On to `C=C[C@H]1C[N@@]2CC[C@H]1C[C@H]2[C@H](O)c1ccnc2ccc(OC)cc12` [Ex. 7, Quinine, reference compound], for which the Bittering index in data set [2] is on record as 0^d.

`COc1cc(CNC(=O)CCCC/C=C/C(C)C)ccc1O` [capsaicin]: the pungency level entry in data set [3] is recorded as “about 16,000,000 SHU”.
